Laboratory results taken from paper PMC7582929, “Characterization of Cetacean Proline-Rich Antimicrobial Peptides Displaying Activity against ESKAPE Pathogens” (International Journal of Molecular Sciences, 2020).
Like-named read-outs stand apart in the source and are kept apart here. Ends that are not written are not given here.

What was measured:
[1] = test system: E. faecium ATCC 19434; assay type: cell-based, Enterococcus faecium; settings: ATCC 19434, 18 h
Excerpt: (§1) The following microbial reference strains were utilized: Escherichia coli BW25113, E. coli ATCC 25922, E. coli ML35p, Enterococcus faecium ATCC 19434, Staphylococcus aureus ATCC 25923, Klebsiella pneumoniae ATCC 700603, Acinetobacter baumannii ATCC 19606, Pseudomonas aeruginosa ATCC 27853, Stenotrophomonas maltophilia ATCC 13637, Candida albicans ATCC 90029. The ΔsbmA strain of E. coli BW25113 belongs to the KEIO collection and the clinical isolate of Enterobacter agglomerans was kindly provided by Prof. C. Lagatolla from the Microbiology Laboratory of the University of Trieste. All the growth media were purchased from Difco (part of Thermo Fisher Scientific, MA, USA).
(§2) Bacteria were grown in Mueller-Hinton broth (MHB), except E. faecium, which was grown overnight in brain-heart infusion (BHI); E. coli BW25113 ΔsbmA was grown in the presence of 50 μg/mL kanamycin. C. albicans was grown in Sabouraud broth.
(§3) All the strains were grown overnight at 37 °C (except E. agglomerans, S. maltophilia and C. albicans, which were grown at 30 °C), with shaking at 140 rpm. The overnight bacterial cultures were then diluted approximately 1:40 in fresh growth medium and incubated at 37 °C or 30 °C with shaking (140 rpm) until an OD600 of between 0.3 and 0.5 was reached.
(§4) The minimum inhibitory concentration was determined by the broth microdilution method according to the NCCLS protocol. Briefly, an overnight bacterial or fungal culture was diluted in fresh MH or Sabouraud broth, respectively (300 µL O/N culture in 10 mL MHB/Sabouraud) and the culture was let grow at 37 °C or 30 °C to reach OD600 between 0.3 and 0.5. Serial two-fold dilutions of peptides were then performed in culture medium (Sabouraud, MHB or 20% MHB in PBS), to a final volume of 50 µL in the wells of a round bottom microtiter plate (Sarstedt, Milan, Italy), and then the bacterial suspension with a load of 5 × 10^5 CFU/mL was added to the plate, halving the final concentration of bacteria and peptides. The culture was grown at 37 °C or 30 °C and the MIC was determined after 18h by visual inspection as the first clear well. The assessment was performed taking into consideration at least three independent experiments performed in duplicate.

[2] = test system: S. maltophilia ATCC 13637; assay type: cell-based, Stenotrophomonas maltophilia; settings: ATCC 13637, 18 h
Excerpt: as §1, §2, §3, §4

[3] = test system: panel of reference pathogenic bacterial and fungal strains; assay type: cell-based
Excerpt: as §1, §2, §3, §4

[4] = test system: E. coli BW25113—Δ SbmA; assay type: cell-based, Escherichia coli; settings: E. coli BW25113 ΔSbmA, median of n ≥ 3
Excerpt: as §1, §2, §3, §4

[5] = test system: C. albicans ATCC 90029; assay type: cell-based, Candida albicans; settings: ATCC 90029, 18 h
Excerpt: as §1, §2, §3, §4

[6] = test system: E. agglomerans—clinical isolate; assay type: cell-based, Enterobacter agglomerans; settings: 18 h
Excerpt: as §1, §2, §3, §4

[7] = test system: S. aureus ATCC 25923; assay type: cell-based, Staphylococcus aureus; settings: ATCC 25923, 18 h
Excerpt: as §1, §2, §3
(§5) The minimum inhibitory concentration was determined by the broth microdilution method according to the NCCLS protocol. […]

[8] = test system: human red blood cells (hRBCs); assay type: cell-based
Protocol: Figure 4 Evaluation of in vitro toxicity of CePrAMPs. (A) Hemolysis assay against human red blood cells (hRBCs), re-suspended in PBS at 4% (v/v) concentrations, measured as the absorbance of released hemoglobin (540 nm) after 1 h of exposure to the peptides. Results are reported as percentages with respect to hRBCs treated for 1 h with 1% Triton X-100 (considered as 100%), and are the average of three independent experiments (n = 3); (B,C) Evaluation via MTT assay of the viability of the indicated eukaryotic cell lines after exposure to the peptides. HaCat (B) or MEC-1 (C) cells were incubated with the different peptides at increasing concentrations for 21 h (B) or 20 h (C), before treating cells with MTT. Results are reported as the percentage of viable cells with respect to the untreated control, and are the average of three independent experiments (n = 3) (* = p < 0.05; ** = p < 0.01).
The lytic potential towards eukaryotic cell membranes was assessed by measuring the release of hemoglobin from human red blood cells (hRBCs) after exposure to the peptides. hRBCs were collected from single donor- human whole blood (Cambridge Bioscience, UK), being isolated by centrifugation, washed three times with PBS, and resuspended to either 8% or 0.8% (v/v) in PBS. […]

[9] = test system: bacterial protein synthesis (E. coli extracts); assay: In vitro transcription/translation assay (firefly luciferase reporter); assay type: biochemical; settings: E. coli lysate, 30 °C, 1 h, increasing peptide concentrations up to 25 µM, n ≥ 3
Protocol: Several PrAMPs derived from artiodactyl or insect peptides act by interfering with bacterial protein synthesis. To evaluate if the cePrAMPs also targeted this process, in vitro transcription/translation assays were carried out in their presence, assessing the inhibition of the synthesis of a reporter luciferase (Figure 3). […].  Figure 3 Luciferase activity after in vitro transcription/translation reactions in presence of cePrAMPs. E. coli extracts were incubated with the firefly luciferase reporter DNA in the presence of increasing concentrations of cePrAMPs. Results are presented as the percentage with respect to control samples treated with only RNase-free water. Average and standard deviation of at least three independent experiments (n ≥ 3).
Reactions were set up using lysates of the RTS 100 E. coli HY kit from Biotechrabbit (Berlin, Germany) according to the user manual. Briefly, 1 μL of peptide solution was added to each reaction to reach the desired final concentration in a final volume of 6 μL. […] The presence of luciferase reporter protein was quantified by measuring its luminescence using a Infinite M200 plate reader (Tecan, Männedorf, Switzerland). The relative luminescence values for all the assays were calculated as a percentage of the positive control (reactions with nuclease-free water instead of the peptides) using three independent replicates. […]

[10] = Resuspension of the peptides in Mueller-Hinton broth; assay type: physicochemical; settings: 100% Mueller-Hinton broth
Excerpt: . To solve this issue and determine how it affected antimicrobial activity, bacterial susceptibility tests were repeated with most strains using 20% Mueller-Hinton broth. With some exceptions, these four peptides did indeed increase their activity in this medium, as did the others, in such a manner that the relative differences remained substantially unchanged (Table S1). Therefore, sequence-activity considerations remain valid.

[11] = test system: K. pneumoniae ATCC 700603; assay type: cell-based, Klebsiella pneumoniae; settings: 20% Mueller-Hinton broth in PBS, median of n ≥ 3
Excerpt: as §1, §2, §3, §5

[12] = test system: E. coli BW25113; assay type: cell-based, Escherichia coli
Excerpt: as §1, §2, §3, §4

[13] = test system: P. aeruginosa ATCC 27853; assay type: cell-based, Pseudomonas aeruginosa; settings: 20% Mueller-Hinton broth in PBS, median of n ≥ 3
Excerpt: as §1, §2, §3, §5

[14] = against P. aeruginosa and E. faecium
[15] = against all the Gram-negative pathogen and C. albicans
[16] = 20% Mueller-Hinton broth in PBS
[17] = broth microdilution (NCCLS), Mueller-Hinton broth, 37 °C, 18 h, visual

Sequence | MIC [1] [µM] | MIC [2] [µM] | MIC [3, 14] [µM] | MIC ([3]; against P. aeruginosa and E. faecium, listed as Lip) [µM] | MIC [3, 15] [µM] | MIC [4, 16] [µM] | MIC [4, 17] [µM] | MIC [5] [µM] | MIC [6] [µM] | MIC [7] [µM] | hemolytic effect [8] | MIC ([3]; against P. aeruginosa and E. faecium, listed as Bal) [µM] | inhibition of in vitro transcription/translation (luciferase activity) [9] | resuspension in growth medium [10] | MIC [11] [µM] | MIC ([12]; BW25113, 18 h) [µM] | MIC ([12]; E. coli BW25113, 20% Mueller-Hinton broth in PBS, median of n ≥ 3) [µM] | MIC [13] [µM]
RRIRIRPPRLPRPRPRPWFPPRFPIPRIPGKR [Lip1] | 4 | 0.5 | 2 to 4 | ≤ 4 | ≤ 2 | 0.5 | 1.5 | 2 | 0.5 | – | – | – | – | – | – | – | – | –
RRIRPRPPRLPRPRPRPLPFPRPGPRPIPRPLPFP [Bac7(1-35), reference compound] | 64 | 1 | – | – | – | 2 | 8 | 2 | 0.5 | >64 | – | – | – | – | – | – | – | –
RRIPFWPIPLRWQWPPPWFPPSFPIPRISRKR [Del1] | 4 | 4 | – | – | – | 1 | 8 | 8 | 8 | – | relatively high hemolytic effect | – | – | – | – | – | – | –
RRIRFRPPRLPRPRPRPWIPPRFPFPRIPGKR [Bal1] | 4 | 1 | 2 to 4 | – | ≤ 2 | 0.5 | 2 | 1.5 | 0.5 | – | – | ≤ 4 | – | – | – | – | – | –
RRIPFWPPNLPGPRRPPWFLPDFRIPRIPRKR [Orc1] | 16 | 2 | – | – | – | – | 2 | 4 | 8 | – | – | – | – | – | – | – | – | –
RRIRFPFPPFPWQWPPAGF [Neo1] | >64 | 24 | – | – | – | – | – | 32 | 64 | – | – | – | almost no inhibitory activity on protein synthesis | difficult to resuspend in 100% Mueller-Hinton broth | > 64 | 24 | 16 | 64
